Laboratory results: article PMC5562305, “Impact of novel palmitoylated prolactin-releasing peptide analogs on metabolic changes in mice with diet-induced obesity” (PLoS ONE, 2017)
Starred links: 1 amine or outer side, 2 acyl side, 3 side chain; linkers in the order of their positions; H or OH if unused. Residues, ends and D or L forms follow the SMILES beside them. Groups on a side chain read outwards from the residue. *: point of attachment. TTDA(Palmitoyl) = CCCCCCCCCCCCCCCC(=O)NCCCOCCOCCOCCCN*; Suc = O=C(CCC(=O)[*:2])[*:1]

Test system: urinary metabolites
Assay: NMR-based metabolomics of urine of DIO mice
Assay type: in vivo, C57BL/6 mice
Parameters: key to DMA, Mean / DMG, Mean / MA, Mean / TMA, Mean / acetate, Mean / allantoin, Mean / carnitine, Mean / choline, Mean / cis-aconitate, Mean / creatine+creatinine, Mean / creatine, Mean / creatinine, Mean / ethanolamine, Mean / formate, Mean / galactose, Mean / glucose, Mean / glycine, Mean / lactate, Mean / succinate, Mean / vinylacetylglycine, Mean: TSA-normalized intensity of the metabolite's representative NMR signal
Conditions: urine of DIO mice, NMR metabolomics
Experimental: Urine samples for NMR-based metabolomics were collected prior to the start of the interventions and at the end of the experiment. For overnight urine collection (from 5 pm to 8 am), the mice were housed in individual metabolic cages (Tecniplast, Buguggiate, Italy) without access to food. Samples were collected with the addition of NaN3 and stored at -80°C until NMR analysis.
The urine samples were thawed at room temperature and centrifuged at 13 684 x g for 5 min prior to the NMR experiments. A 200-μl aliquot of supernatant was diluted with 340 μl of H2O mixed with 60 μl of phosphate buffer (1.5 M KH2PO4 in D2O containing 2 mM NaN3 and 0.1% trimethylsilyl propionic acid (TSP), pH 7.4) and transferred to a 5-mm NMR tube. The NMR data were acquired with a 600 MHz Bruker Avance III spectrometer (Bruker BioSpin, Rheinstetten, Germany) equipped with a 5-mm TCI cryogenic probe head. All of the experiments were performed at 300 K. Automatic tuning, matching, shimming and adjusting of the 90° pulse length were performed for each sample.
As mouse urine naturally contains urinary proteins, the NMR spectra were acquired using a Carr-Purcell-Meiboom-Gill (CPMG) pulse sequence with water presaturation (Bruker pulse sequence cpmgpr1d) to eliminate the strong protein background. […] For better metabolite identification, a short J-resolved experiment with presaturation (NS = 2, SW = 16 ppm, TD = 8k, number of increments = 40, SW = 78.125 Hz in the indirect dimension, and relaxation delay = 2 s) was executed for all samples. Additional two-dimensional ^1H-^1H correlation spectroscopy (COSY) and ^1H-^13C heteronuclear multiple-quantum correlation (HMQC) experiments (Bruker pulse sequences cosygpprqf and hmqcphpr) were performed for selected samples.
The acquired data were processed using Topspin 3.2 software (Bruker BioSpin, Rheinstetten, Germany). Line broadening of 0.3 Hz was applied on free induction decays (FIDs) prior to Fourier transformation. The spectra were automatically phased, baseline corrected and referenced to the signal of TSP (0.00 ppm).
The assignment of individual metabolites was achieved by comparing the proton spectra with the spectra of pure metabolites using Chenomx NMR Suite 7.6 (Chenomx Inc., Edmonton, AB, Canada), the HMDB database and previously published metabolomic data. The identification of metabolites was supported through J-resolved and COSY experiments and, if possible, confirmed using carbon chemical shifts extracted from the HMQC spectra.
For quantitation of individual metabolites, the CPMG spectra were uniformly binned in the range of 0.10–10.00 ppm to 0.01-ppm intervals using AMIX software (Bruker BioSpin, Rheinstetten, Germany). This procedure reduced the dimensionality of the data, eliminated chemical shift variations and thus simplified the reproducible automatic quantification. Regions corresponding to water (4.60–4.90 ppm) and urea (5.60–6.00 ppm) were removed prior to analysis. As the dilutions of the original urine samples differed (due to the differences in water intake during urine collection), all of the spectra were normalized to the total spectral area (TSA). For each identified metabolite, one representative signal was chosen and then quantified as the sum of appropriate adjacent 0.01-ppm bins to cover the whole signal width. The metabolite concentration was expressed as the TSA-normalized intensity of the respective signal. For selection of an appropriate statistical method (parametric or non-parametric) the Lilliefors test of normality was performed. […] Metabolite alterations with a P < 0.05 were considered statistically significant. Statistical analysis was performed using Matlab software (“MATLAB version 8.6 (R2015b). Natick, Massachusetts: The MathWorks Inc., 2015.,” n.d.). […]

[1] = difference of analog mean vs saline mean

Structure (SMILES): CCCCCCCCCCCCCCCC(=O)NCCCOCCOCCOCCCNC(=O)CCC(=O)NCCCC[C@H](NC(=O)[C@@H](NC(=O)[C@H](CCC(=O)O)NC(=O)[C@H](CCSC)NC(=O)[C@H](CO)NC(=O)[C@H](Cc1c[nH]cn1)NC(=O)[C@H](CCCNC(=N)N)NC(=O)[C@H](Cc1c[nH]cn1)NC(=O)[C@@H](NC(=O)[C@H](CCCNC(=N)N)NC(=O)[C@H](CO)NC(=O)CCC(=O)NCCCOCCOCCOCCCNC(=O)CCCCCCCCCCCCCCC)[C@@H](C)O)[C@@H](C)CC)C(=O)N[C@H](C(=O)N1CCC[C@H]1C(=O)N[C@@H](CC(=O)O)C(=O)N[C@H](C(=O)N[C@@H](CC(N)=O)C(=O)N1CCC[C@H]1C(=O)N[C@@H](C)C(=O)N[C@@H](Cc1c[nH]c2ccccc12)C(=O)N[C@@H](Cc1ccc(O)cc1)C(=O)N[C@@H](C)C(=O)N[C@@H](CO)C(=O)N[C@@H](CCCNC(=N)N)C(=O)NCC(=O)N[C@H](C(=O)N[C@@H](CCCNC(=N)N)C(=O)N1CCC[C@H]1C(=O)N[C@H](C(=O)NCC(=O)N[C@@H](CCCNC(=N)N)C(=O)N[C@@H](Cc1ccccc1)C(N)=O)C(C)C)[C@@H](C)CC)[C@@H](C)CC)[C@@H](C)O [analog 3] ({TTDA(Palmitoyl)-Suc}-SRTHRHSMEIK([Suc-TTDA(Palmitoyl)])TPDINPAWYASRGIRPVGRF-NH2)
- creatine, Saline/analog % [1]: 0.053%
- creatinine, Saline/analog % [1]: 0.053%
- ethanolamine, Saline/analog % [1]: 0.053%
- formate, Saline/analog % [1]: 0.00334%
- fumarate, Saline/analog % [1]: -0.141%
- galactose, Saline/analog % [1]: -0.254%
- glucose, Saline/analog % [1]: -0.116%
- glycine, Saline/analog % [1]: -0.035%
- hexanoylglycine + acids (0.88 ppm), Saline/analog % [1]: 0.165%
- hippurate (7.55 ppm), Saline/analog % [1]: -0.140%
- hippurate (7.64 ppm), Saline/analog % [1]: -0.133%
- hippurate (7.84 ppm), Saline/analog % [1]: -0.124%
- lactate, Saline/analog % [1]: 0.112%
- multiplet acids (1.6 ppm), Saline/analog % [1]: 0.172%
- putrescin, Saline/analog % [1]: -0.021%
- succinate, Saline/analog % [1]: -0.140%
- taurine (3.27 ppm), Saline/analog % [1]: -0.063%
- taurine (3.43 ppm), Saline/analog % [1]: -0.093%
- trigonelline (8.84 ppm), Saline/analog % [1]: -0.159%
- trigonelline (9.13 ppm), Saline/analog % [1]: -0.171%
- vinylacetylglycine, Saline/analog % [1]: 0.175%
- 2-OG (2.45 ppm), Mean (group mean): 11.878
- 2-OG (3.01 ppm), Mean (group mean): 10.469
- 2-PY (8.33 ppm), Mean (group mean): 1.098
- 3-indoxylsulfate (7.51 ppm), Mean (group mean): 1.344
- 3-indoxylsulfate (7.71 ppm), Mean (group mean): 0.810
- 4-PY (7.97 ppm), Mean (group mean): 2.017
- 4-PY (8.55 ppm), Mean (group mean): 0.633
- DMA, Mean (group mean): 5.618
- DMG, Mean (group mean): 1.853
- MA, Mean (group mean): 3.016
- MNA (8.90 ppm), Mean (group mean): 0.487
- MNA (8.97 ppm), Mean (group mean): 0.470
- MNA (9.265 ppm), Mean (group mean): 0.490
- MNA-Nox (7.75 ppm), Mean (group mean): 0.972
- MNA-Nox (8.13 ppm), Mean (group mean): 0.792
- MNA-Nox (8.49 ppm), Mean (group mean): 0.511
- MNA-Nox (8.75 ppm), Mean (group mean): 0.485
- N-carbamoylalanine (2.38 ppm), Mean (group mean): 11.854
- N-carbamoylalanine (3.31 ppm), Mean (group mean): 9.499
- N-isovalerylglycine + oxovalerate (0.92 ppm), Mean (group mean): 16.056
- TMA, Mean (group mean): 11.780
- acetate, Mean (group mean): 3.429
- allantoin, Mean (group mean): 22.447
- carnitine, Mean (group mean): 6.067
- choline, Mean (group mean): 1.970
- cis-aconitate, Mean (group mean): 8.481
- citrate (2.55 ppm), Mean (group mean): 29.434
- citrate (2.69 ppm), Mean (group mean): 26.220
- creatine+creatinine, Mean (group mean): 24.904
- creatine, Mean (group mean): 7.343
- creatinine, Mean (group mean): 11.686
- ethanolamine, Mean (group mean): 8.370
- formate, Mean (group mean): 0.199
- fumarate, Mean (group mean): 0.151
- galactose, Mean (group mean): 0.578
- glucose, Mean (group mean): 3.207
- glycine, Mean (group mean): 5.874
- hexanoylglycine + acids (0.88 ppm), Mean (group mean): 15.361
- hippurate (7.55 ppm), Mean (group mean): 3.987
- hippurate (7.64 ppm), Mean (group mean): 2.057
- hippurate (7.84 ppm), Mean (group mean): 4.311
- lactate, Mean (group mean): 6.853
- multiplet acids (1.6 ppm), Mean (group mean): 12.521
- putrescin, Mean (group mean): 8.726
- succinate, Mean (group mean): 9.267
- taurine (3.27 ppm), Mean (group mean): 24.146
- taurine (3.43 ppm), Mean (group mean): 20.508
- trigonelline (8.84 ppm), Mean (group mean): 0.263
- trigonelline (9.13 ppm), Mean (group mean): 0.106
- vinylacetylglycine, Mean (group mean): 3.527
